Data taken from US20030083241A1, “Use of somatostatin receptor agonists in the treatment of human disorders of sleep hypoxia and oxygen deprivation” (priority 2001, published 2003).

Columns and labels:
GHRH hormone secretion = settings: in vivo; cited from earlier work
obstructive sleep apnea = settings: octreotide given as therapy for the endocrine disorder; cited from earlier work
GERD symptoms = assay: Clinical observation of GERD symptoms in a terminal cancer patient given octreotide; format: in vivo, human
Procedure: Development of the present invention was stimulated by an event in Applicant's clinical practice of oncology. Octretotide was added to the treatment program of a patient with terminal cancer because the patient's cancer concentrated radiolabelled octreotide on a nuclear medicine scan. Treatment was initiated with subcutaneous octreotide at a dose of 150 microgram twice daily, then three times daily, and then finally the patient was shifted to a longer-acting depot formulation of octreotide (Sandostatin LAR) that was given intramuscularly on a monthly basis.

[1] = tested on: TNF-alpha, Interleukin-1 beta and Interleukin-6; settings: cited from earlier work

C[C@@H](O)[C@@H]1NC(=O)[C@H](CCCCN)NC(=O)[C@@H](Cc2c[nH]c3ccccc23)NC(=O)[C@H](Cc2ccccc2)NC(=O)[C@@H](NC(=O)[C@H](N)Cc2ccccc2)CSSC[C@@H](C(=O)N[C@H](CO)[C@@H](C)O)NC1=O [octreotide, octreotide acetate]
GHRH hormone secretion (GHRH hormone secretion): inhibited | obstructive sleep apnea in patients with acromegaly (obstructive sleep apnea): ameliorated in many patients | GERD symptoms after initiation of octreotide administration (GERD symptoms; one patient with terminal cancer, subcutaneous 150 microgram twice, then three times daily, then monthly IM Sandostatin LAR, symptoms present for many years): rapid and complete disappearance of GERD symptoms | duration of control of GERD symptomatology (GERD symptoms; same patient, until death from a complication of the cancer unrelated to therapy): maintained for several months | secretion of TNF-alpha, Interleukin-1 beta and Interleukin-6 [1]: inhibit
